We go through one compound from US20240317780A1, “RADIOPHARMACEUTICAL SOMATOSTATIN RECEPTOR LIGANDS AND PRECURSORS THEREOF” (Technische Universität München, priority 2021, published 2024).

Read-outs that look alike come from different tables or passages of the source. Where a SMILES comes first, the peptide text is derived from it. Bridges are numbered along the chain shown (N, C = ends). [ ]: non-standard residue; d: D form. The star is where a group is joined. ξ: configuration not given here. Benzoyl(4-SiFtBu2) = CC(C)(C)[Si](F)(c1ccc(C(=O)*)cc1)C(C)(C)C; DO3AM = NC(=O)CN1CCN(CC(N)=O)CCN(CC(=O)*)CCN(CC(N)=O)CC1; ξW = NC(Cc1c[nH]c2ccccc12)C(=O)O; dDap = NC[C@@H](N)C(=O)O; ξF = NC(Cc1ccccc1)C(=O)O; ξD = NC(CC(=O)O)C(=O)O; ξDap = NCC(N)C(=O)O; ξC = NC(CS)C(=O)O

Data set [1] has as its target T1, SST2 (Homo sapiens, UniProt P30874).
T1 construct: expressed in transfected cells; host or cells: CHO (Chinese hamster ovary) cells
Kind of data set: Determination of IC50: competitive binding against [125I]TOC on SST2-transfected CHO cells. The settings on record: [125I]TOC reference radioligand, 60 min room temperature.

Data set [2] in a line: Biodistribution of 18F-labeled SST2 ligands in AR42J tumor-bearing mice. In kind it is in vivo. The settings on record: female, CD1 nu/nu, mouse, iv, total radioactivity, 1 h post injection, tail vein. How it is done: All animal experiments were conducted in accordance with general animal welfare regulations in Germany and the institutional guidelines for the care and use of animals. To establish tumor xenografts, AR42J cells (5×10^6 cells/100 μL) were suspended in Dulbecco modified Eagle medium/Nutrition Mixture F-12 with Glutamax-1 (1:1) and inoculated subcutaneously onto the right shoulder of 8 weeks old, female CD1 nu/nu mice (Charles River, Sulzfeld, Germany). Mice were used for experiments when tumors had grown to a diameter of 5-9 mm (7-15 days after inoculation).
Approximately 0.5-2.0 MBq (0.05-0.25 nmol) of the ^18F-labeled SST2-ligands were injected into the tail vein of AR42J tumor-bearing female CD1 nu/nu mice and sacrificed after 1 h post injection (n=3-5). Selected organs were removed, weighted and measured in a γ-counter.
The Tables 4, 5, and 6 summarize the results of the in vivo mouse experiments. For all biodistribution studies, female CD1 nu/nu mice with AR42J tumor xenografts, were used and sacrificed 1 h post injection.

Data set [3] has as its target HSA (Homo sapiens, UniProt P02768). As to the kind of experiment: HSA binding by RIAC method (gel filtration, apparent molecular weight). The data set is classed as in vitro ADME. As to conditions: HSA binding as apparent molecular weight, 700 μM HSA in PBS mobile phase.
Data set [4] can be described thus: Octanol-water distribution coefficient (logD pH 7.4) of the labeled tracer. The data set is classed as physicochemical. The settings on record: n-octanol/PBS pH 7.4, room temperature. The procedure, abridged:
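About 1 MBq tracer partitioned in 1:1 PBS pH 7.4/n-octanol, mixed 3 min at room temperature, centrifuged 15000 g for 5 min. Both layers counted by gamma counter; at least six repeats.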

T1 sequence (P30874 whole entry, species assumed): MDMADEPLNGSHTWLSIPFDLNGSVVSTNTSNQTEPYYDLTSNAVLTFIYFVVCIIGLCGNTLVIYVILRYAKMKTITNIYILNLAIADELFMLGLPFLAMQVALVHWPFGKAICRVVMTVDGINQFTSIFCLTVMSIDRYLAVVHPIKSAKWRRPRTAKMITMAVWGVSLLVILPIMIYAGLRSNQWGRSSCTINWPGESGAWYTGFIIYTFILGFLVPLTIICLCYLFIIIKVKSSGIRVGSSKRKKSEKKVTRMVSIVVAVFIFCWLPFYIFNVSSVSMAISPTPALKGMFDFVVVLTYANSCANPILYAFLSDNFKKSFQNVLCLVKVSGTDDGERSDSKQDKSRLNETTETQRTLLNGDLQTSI
HSA, sequence (P02768 25-609): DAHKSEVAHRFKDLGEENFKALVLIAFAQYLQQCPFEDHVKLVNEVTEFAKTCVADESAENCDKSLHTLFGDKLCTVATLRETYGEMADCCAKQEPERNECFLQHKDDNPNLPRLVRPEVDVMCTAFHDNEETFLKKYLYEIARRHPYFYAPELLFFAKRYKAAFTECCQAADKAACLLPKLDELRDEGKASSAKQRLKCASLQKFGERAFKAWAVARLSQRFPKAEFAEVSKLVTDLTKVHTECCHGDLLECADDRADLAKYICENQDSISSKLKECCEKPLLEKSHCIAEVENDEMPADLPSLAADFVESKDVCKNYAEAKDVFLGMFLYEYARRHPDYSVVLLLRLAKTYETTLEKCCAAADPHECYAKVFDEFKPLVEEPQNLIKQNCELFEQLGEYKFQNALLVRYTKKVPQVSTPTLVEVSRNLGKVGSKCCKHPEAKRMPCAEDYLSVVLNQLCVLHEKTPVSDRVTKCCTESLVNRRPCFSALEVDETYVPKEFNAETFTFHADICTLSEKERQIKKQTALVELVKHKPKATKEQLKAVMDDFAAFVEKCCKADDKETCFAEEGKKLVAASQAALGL

Usually IC50 stands for the concentration needed to halve the response being measured. High values mean weaker potency, low ones greater potency. For `C[C@@H](O)[C@H](NC(=O)C1CSSCC(NC(=O)C(Cc2ccccc2)NC(=O)CNC(=O)CNC(=O)[C@@H](CC(=O)O)NC(=O)C(CC(=O)O)NC(=O)[C@@H](CNC(=O)CN2CCN(CC(N)=O)CCN(CC(N)=O)CCN(CC(N)=O)CC2)NC(=O)C(CN)NC(=O)c2ccc([Si](F)(C(C)(C)C)C(C)(C)C)cc2)C(=O)N[C@@H](Cc2ccc(O)cc2)C(=O)NC(Cc2c[nH]c3ccccc23)C(=O)N[C@@H](CCCCN)C(=O)N[C@@H]([C@@H](C)O)C(=O)N1)C(=O)O` (stereo partly shown) [[Pb]36] ({Benzoyl(4-SiFtBu2)}-[ξDap][dDap](DO3AM)[ξD][dD]GG[ξF][ξC]Y[ξW]KT[ξC]T-OH; disulfide 8-13), in data set [1], the half-inhibitory concentration (IC50) came out at 6.57 ± 0.32 nM. Moreover, the tissue uptake at 1 h was 22.3 ± 3.85 %ID/g in data set [2] (AR42J tumor, AR42J tumor, read-out: Tumor % ID/g ± SD); 2 ± 0.27 %ID/g in data set [2] (adrenal glands, read-out: Adrenal glands % ID/g ± SD); 1.3 ± 0.21 %ID/g in data set [2] (blood, read-out: Blood % ID/g ± SD); 3.38 ± 0.7 %ID/g in data set [2] (bone, read-out: Bone % ID/g ± SD); 0.71 ± 0.09 %ID/g in data set [2] (heart, read-out: Heart % ID/g ± SD); 1.31 ± 0.21 %ID/g in data set [2] (intestine, read-out: Intestine % ID/g ± SD). Also, the tissue uptake at 1 h in data set [2] (kidneys, read-out: Kidneys % ID/g ± SD) is 43 ± 6.22 %ID/g; in data set [2] (liver, read-out: Liver % ID/g ± SD), 8.47 ± 1.23 %ID/g; in data set [2] (lung, read-out: Lung % ID/g ± SD) it was 2.42 ± 0.5 %ID/g; in data set [2] (muscle, read-out: Muscle % ID/g ± SD), 0.47 ± 0.08 %ID/g; in data set [2] (pancreas, read-out: Pancreas % ID/g ± SD), 9.09 ± 1.79 %ID/g; in data set [2] (spleen, read-out: Spleen % ID/g ± SD) it was 0.84 ± 0.17 %ID/g. For the same compound, the tissue uptake at 1 h in data set [2] (stomach, read-out: Stomach % ID/g ± SD) amounted to 4.32 ± 0.81 %ID/g. For the same compound, the HSA in data set [3] was 20.22 kDa. Further, the “LogDpH=7.4” value in data set [4] was −1.82 ± 0.05.
